Active and inactive are the calls of the source. No cut-off for these calls is given here.
Legend:
MCF7 = assay: cells; conditions: Homo sapiens, MCF7, 48 h
Description: Cytotoxicity against human MCF7 cells after 48 hrs by MTT assay

HT-29 = assay: Cytotoxicity against human HT-29 cells after 48 hrs by MTT assay; type: functional, cell-based; conditions: HT-29, 48 h
B16 = assay: Cytotoxicity against […] cells after 48 hrs by MTT assay; type: functional, cell-based; conditions: Mus musculus, B16, 48 h
HeLa [1] = assay: cells; conditions: Homo sapiens, 48 h
Description: Cytotoxicity against human HeLa cells after 48 hrs by MTT assay

HeLa [2] = assay: Induction of apoptosis in human HeLa cells assessed as caspase-3 activation at 0.5 uM after 48 hrs by fluorimetric method relative to control; type: functional
Sus scrofa = species on record: Sus scrofa; assay: Inhibition of porcine brain tubulin polymerization at 3 uM after 1 hr by fluorescence assay relative to control
HeLa [3] = assay: Cell cycle arrest in human HeLa cells assessed as accumulation at G2/M phase at 0.5 uM after 48 hrs by propidium iodide staining based flow cytometry (reference value: 19.3%); type: functional
HeLa [4] = assay: Cell cycle arrest in human HeLa cells assessed as accumulation at S phase at 0.5 uM after 48 hrs by propidium iodide staining based flow cytometry (reference value: 11.3%); type: functional
HeLa [5] = assay: Cell cycle arrest in human HeLa cells assessed as accumulation at G1 phase at 0.5 uM after 48 hrs by propidium iodide staining based flow cytometry (reference value: 62.5%); type: functional
HeLa [6] = assay: Induction of apoptosis in human HeLa cells assessed as […] condensation at 0.5 uM after 48 hrs by Hoechst 33342 staining based fluorescent microscopic method; type: functional, cell-based
HeLa [7] = assay: Cell cycle arrest in human HeLa cells assessed as accumulation at sub-G1 phase at 0.5 uM after 48 hrs by propidium iodide staining based flow cytometry (reference value: 0.9%); type: functional
HeLa [8] = assay: Induction of apoptosis in human HeLa cells assessed as nuclear fragmentation at 0.5 uM after 48 hrs by Hoechst 33342 staining based fluorescent microscopic method; type: functional, cell-based
Tubulin (Homo sapiens) = Tubulin (Homo sapiens) (UniProt P68371+Q9H4B7+P0DPH7+P68366+Q13509+Q71U36+P04350+Q3ZCM7+P07437+P68363+Q9BQE3+Q6PEY2+Q13885+Q9BVA1+Q9BUF5); assay: Inhibition of tubulin polymerization in human HeLa cells assessed as disrupted microtubule organization at 0.5 uM after 48 hrs by immunohistochemical analysis; type: cell-based

`COc1cc([C@@H]2c3cc4c(cc3[C@@H](NC(=O)Cn3cc(-c5cccc(Cl)c5)nn3)[C@H]3COC(=O)[C@H]23)OCO4)cc(OC)c1OC` showed an IC50 (MCF7) of 38.2 µM, an IC50 (HT-29) of 17.5 µM and an IC50 (B16) of 23.6 µM. It also gave an IC50 (HeLa [1]) of 28.4 µM.
In the case of `COc1cc([C@@H]2c3cc4c(cc3[C@@H](NC(=O)Cn3cc(-c5ccc(C)cc5)nn3)[C@H]3COC(=O)[C@H]23)OCO4)cc(OC)c1OC`, the IC50 (MCF7) is reported as 17.1 µM, the IC50 (HT-29) is reported as 22.5 µM and the IC50 (B16) is reported as 23.5 µM. The IC50 (HeLa [1]) was 16.8 µM.
`COc1cc([C@@H]2c3cc4c(cc3[C@@H](NC(=O)Cn3cc(-c5cccs5)nn3)[C@H]3COC(=O)[C@H]23)OCO4)cc(OC)c1OC` gave an IC50 (MCF7) of 8.9 µM, an IC50 (HT-29) of 19.5 µM and an IC50 (B16) of 18.2 µM. It also gave an IC50 (HeLa [1]) of 6.5 µM.
With `COc1cc([C@@H]2c3cc4c(cc3[C@@H](NC(=O)Cn3cc(-c5ccccc5)nn3)[C@H]3COC(=O)[C@H]23)OCO4)cc(OC)c1OC` the IC50 (MCF7) was 8.1 µM, the IC50 (HT-29) was 20.1 µM and the IC50 (B16) was 21.5 µM. It also gave an IC50 (HeLa [1]) of 19.6 µM.
`COc1cc([C@@H]2c3cc4c(cc3[C@@H](O[C@@H]3O[C@@H]5CO[C@@H](C)O[C@H]5[C@H](O)[C@H]3O)[C@H]3COC(=O)[C@H]23)OCO4)cc(OC)c1O` [ETOPOSIDE] was tested, and the IC50 (MCF7) was 1.36 µM, the IC50 (HT-29) was 1.98 µM and the IC50 (B16) was 1.85 µM. It also gave an IC50 (HeLa [1]) of 2.24 µM.
`COc1cc([C@@H]2c3cc4c(cc3[C@@H](NC(=O)Cn3cc(-c5ccccn5)nn3)[C@H]3COC(=O)[C@H]23)OCO4)cc(OC)c1OC` was tested, and the IC50 (MCF7) was 14.5 µM, the IC50 (HT-29) was 18.4 µM and the IC50 (B16) was 19.5 µM. For the same compound, the IC50 (HeLa [1]) was 23.6 µM.
Compound `COc1cc([C@@H]2c3cc4c(cc3[C@@H](NC(=O)Cn3cc(CCC5C(=O)c6ccccc6C5=O)nn3)[C@H]3COC(=O)[C@H]23)OCO4)cc(OC)c1OC` has an IC50 (MCF7) of 7.2 µM, an IC50 (HT-29) of 18.5 µM and an IC50 (B16) of 14.7 µM. The IC50 (HeLa [1]) was 2.6 µM.
With `COc1cc([C@@H]2c3cc4c(cc3[C@H](O)[C@H]3COC(=O)[C@H]23)OCO4)cc(OC)c1OC` [PODOFILOX] the IC50 (MCF7) was 3.75 µM, the Activity (HeLa [2]) was “Active” and the inhibition (Sus scrofa) was 50.2%. For the same compound, the IC50 (HT-29) was 1.26 µM, the IC50 (B16) was 2.12 µM and the IC50 (HeLa [1]) was 2.36 µM.
`COc1cc([C@@H]2c3cc4c(cc3[C@@H](NC(=O)Cn3cc(-c5ccc(C(C)(C)C)cc5)nn3)[C@H]3COC(=O)[C@H]23)OCO4)cc(OC)c1OC` was tested, and the IC50 (MCF7) was 11.3 µM, the Activity (HeLa [3]) was 63.3% and the “fold change (FC)” value (HeLa [2]) was 4 - 6. For the same compound, the inhibition (Sus scrofa) was 46.4%, the Activity (HeLa [4]) was 10.1% and the Activity (HeLa [5]) was 12.5%. For the same compound, the IC50 (HT-29) was 18.6 µM, the IC50 (B16) was 10.6 µM and the Activity (HeLa [6]) was “Active”. The Activity (HeLa [7]) was 0.2%, the IC50 (HeLa [1]) was 0.9 µM and the Activity (HeLa [8]) was “Active”. The inhibition (Tubulin (Homo sapiens)) was “Active”.
`COc1cc([C@@H]2c3cc4c(cc3[C@@H](NC(=O)Cn3cc(-c5cccc(N)c5)nn3)[C@H]3COC(=O)[C@H]23)OCO4)cc(OC)c1OC` showed an IC50 (MCF7) of 21.9 µM, an IC50 (HT-29) of 15.6 µM and an IC50 (B16) of 22.5 µM. It also gave an IC50 (HeLa [1]) of 25.4 µM.
`COc1ccc2cc(-c3cn(CC(=O)N[C@@H]4c5cc6c(cc5[C@@H](c5cc(OC)c(OC)c(OC)c5)[C@H]5C(=O)OC[C@@H]54)OCO6)nn3)ccc2c1` showed an IC50 (MCF7) of 6.9 µM, an IC50 (HT-29) of 13.6 µM and an IC50 (B16) of 14.3 µM. For the same compound, the IC50 (HeLa [1]) was 15.4 µM.
With `COc1cc([C@@H]2c3cc4c(cc3[C@@H](NC(=O)Cn3cc(-c5cncn5C)nn3)[C@H]3COC(=O)[C@H]23)OCO4)cc(OC)c1OC` the IC50 (MCF7) was 22.4 µM, the IC50 (HT-29) was 10.6 µM and the IC50 (B16) was 10.8 µM. It also gave an IC50 (HeLa [1]) of 2.3 µM.
`COc1cc([C@@H]2c3cc4c(cc3[C@@H](NC(=O)Cn3cc(-c5ccc(Br)cc5)nn3)[C@H]3COC(=O)[C@H]23)OCO4)cc(OC)c1OC` was tested, and the IC50 (MCF7) was 0.9 µM, the Activity (HeLa [3]) was 62.7% and the “fold change (FC)” value (HeLa [2]) was 4 - 6. The inhibition (Sus scrofa) was 48.5%, the Activity (HeLa [4]) was 10.5% and the Activity (HeLa [5]) was 13.9%. For the same compound, the IC50 (HT-29) was 0.1 µM, the IC50 (B16) was 10.1 µM and the Activity (HeLa [6]) was “Active”. For the same compound, the Activity (HeLa [7]) was 0.1%, the IC50 (HeLa [1]) was 0.07 µM and the Activity (HeLa [8]) was “Active”. The inhibition (Tubulin (Homo sapiens)) was “Active”.
In the case of `COc1ccc(-c2cn(CC(=O)N[C@@H]3c4cc5c(cc4[C@@H](c4cc(OC)c(OC)c(OC)c4)[C@H]4C(=O)OC[C@@H]43)OCO5)nn2)cc1OC`, the IC50 (MCF7) is reported as 15.8 µM, the IC50 (HT-29) is reported as 13.9 µM and the IC50 (B16) is reported as 22.4 µM. It also gave an IC50 (HeLa [1]) of 17.9 µM.
